B1: A box: Human HMGB1 mutant containing only the A box (amino terminus + A box), SEQ ID NO: 21 (protein, listed as Homo sapiens)
chain: MGKGDPKKPTGKMSSYAFFVQTCREEHKKKHPDASVNFSEFSKKCSERWKTMSAKEKGKFEDMAKADKARYEREMKTYIPPKGET
B2: wild-type HMGB1: Recombinant full length human HMGB1, SEQ ID NO: 18 (protein, listed as Homo sapiens)
chain: MGKGDPKKPTGKMSSYAFFVQTCREEHKKKHPDASVNFSEFSKKCSERWKTMSAKEKGKFEDMAKADKARYEREMKTYIPPKGETKKKFKDPNAPKRLPSAFFLFCSEYRPKIKGEHPGLSIGDVAKKLGEMWNNTAADDKQPYEKKAAKLKEKYEKDIAAYRAKGKPDAAKKGVVKAEKSKKKKEEEEDEEDEEDEEEEEDEEDEEDEEEDDDDE
B3: carboxyl-truncated HMGB1: Human HMGB1 mutant in which the carboxy terminus was deleted, SEQ ID NO: 19 (protein, listed as Homo sapiens)
chain: MGKGDPKKPTGKMSSYAFFVQTCREEHKKKHPDASVNFSEFSKKCSERWKTMSAKEKGKFEDMAKADKARYEREMKTYIPPKGETKKKFKDPNAPKRLPSAFFLFCSEYRPKIKGEHPGLSIGDVAKKLGEMWNNTAADDKQPYEKKAAKLKEKYEKDIAAYRAKGKPDAAKKGVVKAEKSK

Key:
[1] = test system: Murine macrophage-like RAW 264.7 cells; assay: TNF release from RAW 264.7 cells (L929 cytotoxicity bioassay); format: cell-based; conditions: for TNF release by synthetic peptide fragment of the B box: 10 μg/ml synthetic peptide, 10 hours (FIG. 3); for TNF release: 1 μg/ml protein, 8 hours, RAW 264.7 cells (FIG. 1)
Method: Murine macrophage-like RAW 264.7 cells (American Type Culture Collection, Rockville, Md.) were cultured in RPMI 1640 medium (Life Technologies, Grand Island N.Y.) supplemented with 10% fetal bovine serum (Gemini, Catabasas, Calif.), penicillin and streptomycin (Life Technologies) and were used at 90% confluence in serum-free Opti-MEM I medium (Life Technologies, Grand Island, N.Y.). […] Polymyxin B was not used in experiments of synthetic peptide studies.
TNF release was measured by a standard murine fibroblast L929 (ATCC, American Type Culture Collection, Rockville, Md.) cytotoxicity bioassay (Bianchi et al., Journal of Experimental Medicine 183:927-936, 1996) with the minimum detectable concentration of 30 pg/ml. Recombinant mouse TNF was obtained from R&D system Inc., (Minneapolis, MN). Murine fibroblast L929 cells (ATCC) were cultured in DMEM (Life Technologies, Grand Island, N.Y.) supplemented with 10% fetal bovine serum (Gemini, Catabasas, Calif.), penicillin (50 units/ml) and streptomycin (50 μg/ml) (Life Technologies) in a humidified incubator with 5% CO2.
The effect of the mutants on TNF release from Murine macrophage-like RAW 264.7 cells (ATCC) was carried out as follows. RAW 264.7 cells were cultured in RPMI 1640 medium (Life Technologies, Grand Island N.Y.) supplemented with 10% fetal bovine serum (Gemini, Catabasas, Calif.), penicillin and streptomycin (Life Technologies). Polymyxin (Sigma, St. Louis, Mo.) was added at 100 units/ml to suppress the activity of any contaminating LPS. Cells were incubated with 1 μg/ml of full length (wild-type) HMGB1 and each HMGB1 mutant protein in Opti-MEM I medium for 8 hours, and conditioned supernatants (containing TNF which had been released from the cells) were collected and TNF released from the cells was measured by a standard murine fibroblast L929 (ATCC) cytotoxicity bioassay (Bianchi et al., supra) with the minimum detectable concentration of 30 pg/ml. Recombinant mouse TNF was obtained from R & D Systems Inc., (Minneapolis, Minn.) and used as control in these experiments. Data in FIG. 1 are all presented as mean+SEM unless otherwise indicated. (=6−10).
To further examine the effect of HMGB1 B box on cytokine production, varying amounts of HMGB1 B box were evaluated for the effects on TNF, IL-1B, and IL-6 production in murine macrophage-like RAW 264.7 cells. Conditioned media were harvested and measured for TNF, IL-1β and IL-6 levels. TNF levels were measured as described herein, and IL-1β and IL-6 levels were measured using the mouse IL-1β and IL-6 enzyme-linked immunosorbent assay (ELISA) kits (R&D System Inc., Minneapolis, 1) and N>5 for all experiments.
The kinetics of B box-induced TNF release was also examined. TNF release and TNF mRNA expression was measured in RAW 264.7 cells induced by B box polypeptide or GST tag polypeptide only used as a control (vector) (10 μg/ml) for 0 to 48 hours. Supernatants were analyzed for TNF protein levels by an L929 cytotoxicity assay (N=3-5) as described herein. For mRNA measurement, cells were plated in 100 mm plate and treated in Opti-MEM I medium containing B box polypeptide or the vector alone for 0, 4, 8, or 24 hours, as indicated in FIG. 2D. The vector only sample was assayed at the 4 hour time point. Cells were scraped off the plate and total RNA was isolated by RNAzol B method in accordance with the manufacturer's instructions (Tel-Test “B”, Inc., Friendswood, Tex.). TNF (287 bp) was measured by RNase protection assay (Ambion, Austin, Tex.). Equal loading and the integrity of RNA was verified by ethidium bromide staining of the RNA sample on agarose-formaldehyde gel. […] TNF mRNA expression was maximal at 4 hours and decreased at 8 and 24 hours. […] A similar study was carried out measuring TNF protein released from RAW 264.7 cells 0, 4, 8, 24, 32 or 48 hours after administration of B box or vector only (GST tag), using the L929 cytotoxicity assay described herein. […] Data are representative of three separate experiments. […]

RAW 264.7 cells = conditions: polymyxin B alone, 100-1,000 units/ml; cited from earlier work

Molecule | TNF release by synthetic peptide fragment of the B box [1] | TNF release [1] | other results
16-25: Synthetic peptide, amino acids 16-25 of the HMGB1 B box (SEQ ID NO: 20) (LFCSEYRPKI; listed as Homo sapiens) | did not induce TNF release | – | –
30-49: Synthetic peptide, amino acids 30-49 of the HMGB1 B box (SEQ ID NO: 20) (PGLSIGDVAKKLGEMWNNTA; listed as Homo sapiens) | did not induce TNF release | – | –
45-64: Synthetic peptide, amino acids 45-64 of the HMGB1 B box (SEQ ID NO: 20) (WNNTAADDKQPYEKKAAKLK; listed as Homo sapiens) | did not induce TNF release | – | –
60-74: Synthetic peptide, amino acids 60-74 of the HMGB1 B box (SEQ ID NO: 20) (AAKLKEKYEKDIAAY; listed as Homo sapiens) | did not induce TNF release | – | –
Polymyxin B | – | – | cell viability (RAW 264.7 cells): did not influence cell viability
fkdpnapkrlpsafflfcse (FKDPNAPKRLPSAFFLFCSE; listed as Homo sapiens) [1-20-mer] | TNF-stimulating activity was retained | – | TNF stimulating activity relative to full length synthetic B box (1-74-mer) or full length HMGB1 ([1]; peptide 10 μg/ml, 10 hours): less potent
B1 | – | only weakly activated TNF release | –
B2 | – | significantly stimulated TNF release | –
B3 | – | significantly stimulated TNF release | –

Source: patent US20060121047A1, “Use of hmgb polypetides for increasing immune responses” (priority 2002, published 2006)
